Laboratory results reported in ChEMBL document CHEMBL5523762, “Discovery of Potent and Selective G9a Degraders for the Treatment of Pancreatic Cancer” (J Med Chem, 2024).
The source made the active and inactive calls. The calls are words filed in the database; no cut-off is given here.

Experiments:
KP-4 [1] = assay: Antiproliferative activity against human KP-4 cells assessed as inhibition of cell growth measured after 72 hrs by SRB assay; type: functional, cell-based
Panc1005 [2] = assay: Antiproliferative activity against human Panc1005 cells assessed as inhibition of cell growth measured after 72 hrs by SRB assay; type: functional, cell-based
SW1990 = assay: Antiproliferative activity against human SW1990 cells assessed as inhibition of cell growth measured after 72 hrs by SRB assay; type: functional, cell-based
PANC-08-13 [3] = assay: Antiproliferative activity against human PANC-08-13 cells assessed as inhibition of cell growth measured after 72 hrs by SRB assay; type: functional, cell-based
Panc 02.03 [4] = assay: Antiproliferative activity against human Panc 02.03 cells assessed as inhibition of cell growth measured after 72 hrs by SRB assay; type: functional, cell-based
PANC-1 [5] = assay: Upregulation of cleaved PARP level in human PANC-1 cells at 0.1 to 10 uM measured after 24 hrs by Western blot analysis; type: functional, cell-based; conditions: dose 0.1-10 µM
ASPC1 [6] = assay: Synergistic antiproliferative activity against human ASPC1 cells at 0 to 15 uM incubated for 72 hrs in presence of MRTX1133 by SRB assay; type: functional, cell-based; conditions: dose 0-15 µM
KP-4 [7] = assay: Synergistic antiproliferative activity against human KP-4 cells assessed as combination index upto 20 uM incubated for 72 hrs in presence of MRTX1133; type: functional
Panc 02.03 [8] = assay: Synergistic antiproliferative activity against human Panc 02.03 cells assessed as combination index upto 20 uM incubated for 72 hrs in presence of MRTX1133; type: functional
Panc1005 [9] = assay: Synergistic antiproliferative activity against human Panc1005 cells assessed as combination index upto 20 uM incubated for 72 hrs in presence of MRTX1133; type: functional
HPAF-II [10] = assay: Synergistic antiproliferative activity against human HPAF-II cells assessed as combination index upto 20 uM incubated for 72 hrs in presence of MRTX1133; type: functional
KP-4 [11] = assay: Synergistic antiproliferative activity against human KP-4 cells assessed as combination index for ED90 upto 20 uM incubated for 72 hrs in presence of MRTX1133; type: functional
ASPC1 [12] = assay: Synergistic antiproliferative activity against human ASPC1 cells assessed as combination index for ED90 upto 20 uM incubated for 72 hrs in presence of MRTX1133; type: functional
HPAF-II [13] = assay: Synergistic antiproliferative activity against human HPAF-II cells assessed as combination index for ED90 upto 20 uM incubated for 72 hrs in presence of MRTX1133; type: functional
PANC-08-13 [14] = assay: Synergistic antiproliferative activity against human PANC-08-13 cells assessed as combination index for ED90 upto 20 uM incubated for 72 hrs in presence of MRTX1133; type: functional
ASPC1 [15] = assay: Downregulation of H3K9me2 level in human ASPC1 cells at 10 uM incubated for 24 hrs in presence of 1 uM MRTX1133 by Western blot analysis; type: functional, cell-based
ASPC1 [16] = assay: Sensitization of human ASPC1 cells to MRTX1133 assessed as upregulation of gammaH2AX level at 10 uM incubated for 24 hrs in presence of 1 uM MRTX1133 by Western blot analysis; type: functional, cell-based
[17] = Half life in male ICR mouse at 20 mg/kg, ip measured upto 24 hrs by LC-MS/MS analysis; type: ADME, organism-based; conditions: in vivo
[18] = Bioavailability in male ICR mouse at 20 mg/kg, ip measured upto 24 hrs by LC-MS/MS analysis; type: ADME, organism-based; conditions: in vivo
[19] = AUC (0 to t) in male ICR mouse at 5 mg/kg, iv measured upto 24 hrs by LC-MS/MS analysis; type: ADME, organism-based; conditions: in vivo
[20] = Clearance in male ICR mouse at 5 mg/kg, iv measured upto 24 hrs by LC-MS/MS analysis; type: ADME, organism-based; conditions: in vivo
[21] = target: T1, Protein cereblon/Histone-lysine N-methyltransferase EHMT2 (Homo sapiens, UniProt Q96KQ7+Q96SW2); assay: PROTAC activity at CRBN/G9a in human PANC-1 cells assessed as induction of G9a degradation measured after 8 hrs by Western blot analysis; type: cell-based
[22] = target: T2, Protein cereblon/Histone-lysine N-methyltransferase EHMT1 (Homo sapiens) (UniProt Q9H9B1+Q96SW2); assay: PROTAC activity at CRBN/GLP in human PANC-1 cells assessed as induction of GLP degradation at 0.008 to 10 uM measured after 8 hrs by Western blot analysis; type: cell-based; conditions: dose 0.008-10 µM
T2 sequence (Q96SW2 whole entry, looked up): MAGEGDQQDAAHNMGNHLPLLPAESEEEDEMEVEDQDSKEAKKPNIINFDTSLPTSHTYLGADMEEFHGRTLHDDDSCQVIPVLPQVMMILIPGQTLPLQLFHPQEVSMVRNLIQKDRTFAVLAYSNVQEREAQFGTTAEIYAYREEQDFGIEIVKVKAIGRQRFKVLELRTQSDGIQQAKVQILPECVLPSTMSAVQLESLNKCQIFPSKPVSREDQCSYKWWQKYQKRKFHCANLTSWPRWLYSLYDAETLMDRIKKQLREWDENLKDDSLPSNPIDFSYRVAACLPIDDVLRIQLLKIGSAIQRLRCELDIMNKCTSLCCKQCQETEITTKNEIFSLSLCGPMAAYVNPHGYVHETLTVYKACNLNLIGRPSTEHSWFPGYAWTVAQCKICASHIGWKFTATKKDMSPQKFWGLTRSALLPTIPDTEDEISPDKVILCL
T2 sequence (Q9H9B1 whole entry, looked up): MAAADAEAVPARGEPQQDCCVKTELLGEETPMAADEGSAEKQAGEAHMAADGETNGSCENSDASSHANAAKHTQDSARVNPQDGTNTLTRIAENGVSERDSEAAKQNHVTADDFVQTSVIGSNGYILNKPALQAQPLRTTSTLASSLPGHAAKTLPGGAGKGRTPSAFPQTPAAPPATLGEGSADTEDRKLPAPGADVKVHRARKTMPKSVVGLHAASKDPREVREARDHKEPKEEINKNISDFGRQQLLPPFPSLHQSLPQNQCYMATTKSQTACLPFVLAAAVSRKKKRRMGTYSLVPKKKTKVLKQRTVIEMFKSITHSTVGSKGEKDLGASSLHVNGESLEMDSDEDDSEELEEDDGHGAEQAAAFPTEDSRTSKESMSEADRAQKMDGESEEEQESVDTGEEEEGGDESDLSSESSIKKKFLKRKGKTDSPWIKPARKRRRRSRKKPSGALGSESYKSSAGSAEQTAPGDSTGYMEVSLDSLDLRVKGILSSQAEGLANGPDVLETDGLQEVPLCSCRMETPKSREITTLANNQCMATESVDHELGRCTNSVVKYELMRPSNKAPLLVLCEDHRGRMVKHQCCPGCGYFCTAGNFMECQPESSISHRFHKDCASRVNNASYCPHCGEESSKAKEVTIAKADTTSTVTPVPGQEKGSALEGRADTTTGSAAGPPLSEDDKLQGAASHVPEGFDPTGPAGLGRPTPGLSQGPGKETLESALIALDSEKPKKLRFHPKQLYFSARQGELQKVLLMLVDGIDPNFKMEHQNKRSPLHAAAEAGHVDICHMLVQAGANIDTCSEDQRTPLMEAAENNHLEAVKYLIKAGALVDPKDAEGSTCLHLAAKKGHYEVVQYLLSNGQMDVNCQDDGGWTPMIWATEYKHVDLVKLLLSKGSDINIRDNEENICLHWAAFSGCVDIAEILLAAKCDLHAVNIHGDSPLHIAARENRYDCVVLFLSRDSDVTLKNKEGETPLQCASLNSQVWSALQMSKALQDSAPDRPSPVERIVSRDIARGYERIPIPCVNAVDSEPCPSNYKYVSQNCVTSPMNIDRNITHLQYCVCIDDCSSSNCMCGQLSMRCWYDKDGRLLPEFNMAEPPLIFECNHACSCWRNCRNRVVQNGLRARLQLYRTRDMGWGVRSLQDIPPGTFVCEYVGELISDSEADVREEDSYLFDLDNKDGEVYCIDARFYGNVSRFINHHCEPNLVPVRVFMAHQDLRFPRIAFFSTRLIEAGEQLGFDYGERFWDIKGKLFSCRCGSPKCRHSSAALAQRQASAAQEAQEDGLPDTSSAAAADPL

[23] = target: T2, Protein cereblon/Histone-lysine N-methyltransferase EHMT1 (Homo sapiens); assay: PROTAC activity at CRBN/GLP in human ASPC1 cells assessed as induction of GLP degradation at 0.008 to 20 uM measured after 8 hrs by Western blot analysis; type: cell-based; conditions: dose 0.008-20 µM
[24] = target: T1, Protein cereblon/Histone-lysine N-methyltransferase EHMT2; assay: PROTAC activity at CRBN/G9a in human ASPC1 cells assessed as induction of G9a degradation measured after 8 hrs by Western blot analysis; type: cell-based
Target sequence in this assay (Q96KQ7 whole entry): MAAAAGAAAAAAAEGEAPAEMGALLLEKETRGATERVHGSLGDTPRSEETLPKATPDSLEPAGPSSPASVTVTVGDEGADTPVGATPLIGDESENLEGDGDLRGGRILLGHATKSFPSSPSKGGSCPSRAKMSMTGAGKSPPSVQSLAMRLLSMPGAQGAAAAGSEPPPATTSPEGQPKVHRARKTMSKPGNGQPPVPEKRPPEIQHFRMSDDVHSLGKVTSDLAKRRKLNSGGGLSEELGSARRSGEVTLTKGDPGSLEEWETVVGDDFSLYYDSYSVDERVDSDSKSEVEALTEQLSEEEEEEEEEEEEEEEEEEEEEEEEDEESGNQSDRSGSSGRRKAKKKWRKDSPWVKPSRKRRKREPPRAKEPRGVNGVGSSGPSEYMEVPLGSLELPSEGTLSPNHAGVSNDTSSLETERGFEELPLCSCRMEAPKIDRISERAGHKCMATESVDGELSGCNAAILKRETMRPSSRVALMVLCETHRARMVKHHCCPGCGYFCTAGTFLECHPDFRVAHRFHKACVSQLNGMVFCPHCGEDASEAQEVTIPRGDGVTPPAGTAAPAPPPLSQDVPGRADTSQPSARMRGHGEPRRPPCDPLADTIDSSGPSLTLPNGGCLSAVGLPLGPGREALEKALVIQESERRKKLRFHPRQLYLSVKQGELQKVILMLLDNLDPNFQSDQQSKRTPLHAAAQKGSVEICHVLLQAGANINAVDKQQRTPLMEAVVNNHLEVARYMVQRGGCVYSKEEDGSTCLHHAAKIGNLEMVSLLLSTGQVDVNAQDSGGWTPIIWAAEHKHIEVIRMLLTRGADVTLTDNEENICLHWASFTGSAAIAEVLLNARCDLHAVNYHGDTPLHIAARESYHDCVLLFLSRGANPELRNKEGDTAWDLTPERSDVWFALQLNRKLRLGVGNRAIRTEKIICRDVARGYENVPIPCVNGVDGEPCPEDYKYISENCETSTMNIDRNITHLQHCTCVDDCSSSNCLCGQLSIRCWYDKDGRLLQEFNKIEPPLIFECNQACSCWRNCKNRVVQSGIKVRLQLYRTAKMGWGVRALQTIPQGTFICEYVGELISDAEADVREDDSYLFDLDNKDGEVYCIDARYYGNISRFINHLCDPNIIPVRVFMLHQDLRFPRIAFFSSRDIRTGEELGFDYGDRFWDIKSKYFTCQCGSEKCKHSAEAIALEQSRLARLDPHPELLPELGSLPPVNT
Target sequence in this assay (Q96SW2 whole entry): as the sequence (Q96SW2 whole entry, looked up) above

[25] = target: T1, Protein cereblon/Histone-lysine N-methyltransferase EHMT2; assay: PROTAC activity at CRBN/G9a in human PANC-1 cells assessed as induction of G9a degradation at 1 uM measured after 8 to 24 hrs by Western blot analysis; type: cell-based; conditions: time 8-24 hrs
Target sequence in this assay (Q96KQ7 2-1210 limits assumed): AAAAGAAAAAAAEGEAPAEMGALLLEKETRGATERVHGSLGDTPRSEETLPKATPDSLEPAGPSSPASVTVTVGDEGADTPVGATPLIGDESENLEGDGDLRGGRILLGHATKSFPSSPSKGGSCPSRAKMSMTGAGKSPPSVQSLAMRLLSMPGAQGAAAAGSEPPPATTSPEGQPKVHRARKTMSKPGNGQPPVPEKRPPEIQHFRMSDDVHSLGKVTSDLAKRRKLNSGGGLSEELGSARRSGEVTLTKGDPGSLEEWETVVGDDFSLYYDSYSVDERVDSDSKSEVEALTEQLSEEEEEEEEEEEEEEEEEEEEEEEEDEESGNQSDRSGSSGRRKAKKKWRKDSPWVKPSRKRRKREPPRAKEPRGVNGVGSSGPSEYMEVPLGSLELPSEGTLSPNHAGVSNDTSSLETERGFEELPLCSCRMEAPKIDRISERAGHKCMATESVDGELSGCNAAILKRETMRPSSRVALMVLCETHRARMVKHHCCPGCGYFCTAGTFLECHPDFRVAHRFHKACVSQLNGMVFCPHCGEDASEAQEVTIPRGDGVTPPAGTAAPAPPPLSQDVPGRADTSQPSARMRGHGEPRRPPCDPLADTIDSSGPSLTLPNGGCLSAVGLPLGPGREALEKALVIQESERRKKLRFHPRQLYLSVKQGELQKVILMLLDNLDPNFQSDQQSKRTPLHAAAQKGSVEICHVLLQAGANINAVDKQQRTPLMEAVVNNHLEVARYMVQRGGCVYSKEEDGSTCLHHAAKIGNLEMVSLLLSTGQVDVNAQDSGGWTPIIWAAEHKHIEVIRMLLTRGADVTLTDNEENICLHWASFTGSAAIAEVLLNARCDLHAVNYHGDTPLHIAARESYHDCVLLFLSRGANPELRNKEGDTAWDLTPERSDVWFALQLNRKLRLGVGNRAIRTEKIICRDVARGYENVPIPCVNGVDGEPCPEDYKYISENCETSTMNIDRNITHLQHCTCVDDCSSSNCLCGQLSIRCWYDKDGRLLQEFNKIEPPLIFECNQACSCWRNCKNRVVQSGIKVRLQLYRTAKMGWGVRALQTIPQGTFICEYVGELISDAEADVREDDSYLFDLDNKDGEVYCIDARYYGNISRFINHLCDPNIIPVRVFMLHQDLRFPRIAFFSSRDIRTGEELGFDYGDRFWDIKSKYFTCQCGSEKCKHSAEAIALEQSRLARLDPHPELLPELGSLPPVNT
Target sequence in this assay (Q96SW2 whole entry partner): as the sequence (Q96SW2 whole entry, looked up) above

PANC-1 [26] = assay: Downregulation of H3K9me2 level in human PANC-1 cells measured after 24 hrs by Western blot analysis; type: functional, cell-based; conditions: dose 0.04-10 µM
PANC-1 [27] = assay: Effect on H3K4me2 level in human PANC-1 cells at 0.04 to 10 uM measured after 24 hrs by Western blot analysis; type: functional, cell-based; conditions: dose 0.04-10 µM
PANC-1 [28] = assay: Effect on H3K27me1 level in human PANC-1 cells at 0.04 to 10 uM measured after 24 hrs by Western blot analysis; type: functional, cell-based; conditions: dose 0.04-10 µM
PANC-1 [29] = assay: Effect on H3K27me2 level in human PANC-1 cells at 0.04 to 10 uM measured after 24 hrs by Western blot analysis; type: functional, cell-based; conditions: dose 0.04-10 µM
PANC-1 [30] = assay: Effect on H3K27me3 level in human PANC-1 cells at 0.04 to 10 uM measured after 24 hrs by Western blot analysis; type: functional, cell-based; conditions: dose 0.04-10 µM
PANC-1 [31] = assay: Effect on H3K79me3 level in human PANC-1 cells at 0.04 to 10 uM measured after 24 hrs by Western blot analysis; type: functional, cell-based; conditions: dose 0.04-10 µM
PANC-1 [32] = assay: Effect on GSPT1 level in human PANC-1 cells at 0.008 to 10 uM measured after 8 hrs by western blot analysis; type: functional, cell-based; conditions: dose 0.008-10 µM
[33] = target: T1, Protein cereblon/Histone-lysine N-methyltransferase EHMT2; assay: PROTAC activity at CRBN/G9a in human PANC-1 cells assessed as induction of G9a degradation at 1 uM in presence of 50 uM cycloheximide measured after 4 hrs by Western blot analysis; type: cell-based
Target sequence in this assay (Q96KQ7 2-1210 limits assumed): as the sequence (Q96KQ7 2-1210 limits assumed) above
Target sequence in this assay (Q96SW2 whole entry partner): as the sequence (Q96SW2 whole entry, looked up) above

PANC-1 [34] = assay: Effect on GLP mRNA expression at transcriptional level in human PANC-1 cells at 0.1 to 10 uM by RT-qPCR analysis; type: functional, cell-based; conditions: dose 0.1-10 µM
[35] = target: T1, Protein cereblon/Histone-lysine N-methyltransferase EHMT2; assay: PROTAC activity at CRBN/G9a in human PANC-1 cells assessed as induction of G9a degradation at 1 uM pretreated with UNC0638 for 2 hrs followed by compound addition and measured after 8 hrs by Western blot analysis; type: cell-based
Target sequence in this assay (Q96KQ7 2-1210 limits assumed): as the sequence (Q96KQ7 2-1210 limits assumed) above
Target sequence in this assay (Q96SW2 whole entry partner): as the sequence (Q96SW2 whole entry, looked up) above

[36] = target: T1, Protein cereblon/Histone-lysine N-methyltransferase EHMT2; assay: PROTAC activity at CRBN/G9a in human PANC-1 cells assessed as induction of G9a degradation at 1 uM pretreated with MLN4924 for 2 hrs followed by compound addition and measured after 8 hrs by Western blot analysis; type: cell-based
Target sequence in this assay (Q96KQ7 2-1210 limits assumed): as the sequence (Q96KQ7 2-1210 limits assumed) above
Target sequence in this assay (Q96SW2 whole entry partner): as the sequence (Q96SW2 whole entry, looked up) above

COc1cc2c(NC3CCN(CCCC(=O)NCCCCCCCCNc4cccc5c4C(=O)N(C4CCC(=O)NC4=O)C5=O)CC3)nc(C3CCCCC3)nc2cc1OCCCN1CCCC1 (stereo not drawn)
Activity (KP-4 [1]): Active | Activity (Panc1005 [2]): Active | Activity (SW1990): Active | Activity (PANC-08-13 [3]): Active | Activity (Panc 02.03 [4]): Active | Activity (PANC-1 [5]): Active | Activity (ASPC1 [6]): Active | CI (KP-4 [7]): <0.8 | CI (Panc 02.03 [8]): <0.8 | CI (Panc1005 [9]): <0.8 | CI (HPAF-II [10]): <0.8 | CI (KP-4 [11]): <0.4 | CI (ASPC1 [12]): <0.4 | CI (HPAF-II [13]): <0.4 | CI (PANC-08-13 [14]): <0.4 | Activity (ASPC1 [15]): Active | Activity (ASPC1 [16]): Active | half-life [17]: 4.2 h | bioavailability [18]: 40.6% | AUC(0-t) at 24 h [19]: 3780 ng·h/mL | clearance [20]: 22.4 mL/min/kg | Activity [21]: Dose-Dependent Effect | DC50 [21]: 100 nM | Activity [22]: inactive | Activity [23]: inactive | DC50 [24]: 200 nM | Activity [25]: Active | Activity (PANC-1 [26]): Active | Activity (PANC-1 [27]): inactive | Activity (PANC-1 [28]): inactive | Activity (PANC-1 [29]): inactive | Activity (PANC-1 [30]): inactive | Activity (PANC-1 [31]): inactive | Activity (PANC-1 [32]): inactive | Activity [33]: Active | Activity (PANC-1 [34]): inactive | Activity [35]: inactive | Activity [36]: inactive
